Where a name gives a salt, the structure may show the parent alone.

This is an account of results in patent US6339096B1, “Urethanes derived from azacycloalkanes, the thio and dithio analogues thereof and their use as cholesterol biosynthesis inhibitors” (Boehringer Ingelheim Pharma KG, priority 1998, dated 2002).

Assay [1] relates to ^14C-acetate incorporation into the steroids which can be precipitated with digitonin. The experiment in a line: Inhibition of 14C-acetate incorporation into the steroids which can be precipitated with digitonin. Type of assay: cell-based. Conditions: for inhibition at 0.01 µM / inhibition at 0.001 µM: read-out: percentage by which the compound inhibits the 14C-acetate incorporation. The protocol: I. Measuring the Inhibition of ^14C-acetate Incorporation into the Steroids which can be Precipitated with Digitonin
The inhibitory effect was investigated using the method described in J. Lipid. Res. 37, 148-157 [1996] at test concentrations of 10^−8 and 10^−9 mol/l.
The IC50 values of compounds H, I, K and M were determined.

Assay [2] addresses T1, 2,3-epoxysqualene-lanosterol-cyclase (Rattus norvegicus, UniProt P48450).
T1 construct: The quantity of 2,3-epoxysqualene formed therefore serves as a direct measurement of the potency on the animal as a whole; from tissue; host or cells: living rat; 2,3-epoxysqualene measured in the liver
T1 sequence (P48450 1-733): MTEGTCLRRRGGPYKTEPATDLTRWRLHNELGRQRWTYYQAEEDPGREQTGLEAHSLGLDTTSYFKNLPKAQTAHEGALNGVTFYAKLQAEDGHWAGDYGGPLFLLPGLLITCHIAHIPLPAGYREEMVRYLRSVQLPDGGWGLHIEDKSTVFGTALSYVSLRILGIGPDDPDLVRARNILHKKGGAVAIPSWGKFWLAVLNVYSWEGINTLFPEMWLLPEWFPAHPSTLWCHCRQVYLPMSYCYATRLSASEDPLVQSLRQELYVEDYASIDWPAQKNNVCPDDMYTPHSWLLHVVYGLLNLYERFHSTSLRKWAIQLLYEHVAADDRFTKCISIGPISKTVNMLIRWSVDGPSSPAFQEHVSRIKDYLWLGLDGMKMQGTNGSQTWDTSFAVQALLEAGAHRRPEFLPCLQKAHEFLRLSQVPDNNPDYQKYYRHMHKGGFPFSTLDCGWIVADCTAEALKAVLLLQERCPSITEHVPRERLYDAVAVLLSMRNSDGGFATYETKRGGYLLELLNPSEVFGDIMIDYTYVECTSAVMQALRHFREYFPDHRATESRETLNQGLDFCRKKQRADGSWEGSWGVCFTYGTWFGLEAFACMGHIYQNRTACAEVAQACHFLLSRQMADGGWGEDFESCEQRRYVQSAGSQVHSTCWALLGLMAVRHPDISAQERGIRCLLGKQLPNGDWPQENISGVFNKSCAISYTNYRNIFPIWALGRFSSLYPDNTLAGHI
Put plainly: In-vivo activity in the rat after oral administration: 2,3-epoxysqualene level in the liver. The procedure:
II. Measuring the In-vivo Activity in the Rat after Oral Administration
Inhibiting the enzyme 2,3-epoxysqualene-lanosterol-cyclase causes an increase in the 2,3-epoxisqualene levels in the liver and plasma. The quantity of 2,3-epoxysqualene formed therefore serves as a direct measurement of the potency on the animal as a whole. The amounts were determined using the method described in J. Lipid. Res. 38, 564-575, [1997] after t=3 or 8 hours after administration of the substance in concentrations of c=0.01, 0.03, 0.1, 0.3 and 1.0 mg/kg. Table 3 which follows gives the results obtained for the abovementioned substances A, B, C, D, E, G, H, I and K by way of example.
In the control animals there were no measurable 2,3-epoxisqualene levels under these conditions.

Assay [3] deals with normolipaemic golden hamster. Put plainly: Lipid reduction in the normolipaemic golden hamster. Type of assay: in vivo. Conditions: compared with control group. The procedure: III. Lipid Reduction in the Normolipaemic Golden Hamster This was determined using the method described in J. Lipid. Res. 38, 564-575, (1997). At the end of the experiment the total cholesterol, β-lipoprotein-cholesterol and HDL-cholesterol were determined and compared with the values of a control group which were fed without any test substance. The lipid-lowering activity of the abovementioned compound H was tested.

In the case of `CN(C)Cc1ccc(SC2CCN(C(=S)SCc3ccccc3)CC2)cc1.Cl` [(A), N-(benzylthio)thiocarbonyl-4-[4-(dimethylaminomethyl)phenylthio]piperidine-hydrochloride], in assay [1] (test concentration 10^−8 mol/l), the inhibition at 0.01 µM was found to be 85%. For the same compound, the inhibition at 0.001 µM in assay [1] (test concentration 10^−9 mol/l) is 53%. The “2,3-epoxysqualene concentration in the liver (rat)” value (“2,3-epoxysqualene concentration” for short) amounted to 2.0 µg/g in assay [2] (c=0.3 mg/kg, t=3 h); 1.2 µg/g in assay [2] (c=0.3 mg/kg, t=8 h); 9.3 µg/g in assay [2] (c=1.0 mg/kg, t=3 h); 9.8 µg/g in assay [2] (c=1.0 mg/kg, t=8 h).

As for `CN(C)Cc1ccc(C(=O)C2CCN(C(=S)SCc3ccccc3)CC2)cc1.Cl` [(B), N-(benzylthio)thiocarbonyl-4-[4-(dimethylaminomethyl)benzoyl]piperidine-hydrochloride], in assay [1] (test concentration 10^−8 mol/l), the inhibition at 0.01 µM came out at 85%. The inhibition at 0.001 µM in assay [1] (test concentration 10^−9 mol/l) was determined as 47%. The “2,3-epoxysqualene concentration” value in assay [2] (c=0.3 mg/kg, t=3 h) was 4.5 µg/g; in assay [2] (c=0.3 mg/kg, t=8 h) it was 5.8 µg/g; in assay [2] (c=1.0 mg/kg, t=3 h), 39.2 µg/g; in assay [2] (c=1.0 mg/kg, t=8 h) it was 42.0 µg/g.

As to `CN(C)Cc1ccc(SC2CCN(C(=O)OCc3ccccc3)CC2)cc1.Cl` [(C), N-benzyloxycarbonyl-4-[4-(dimethylaminomethyl)phenylthio]piperidine-hydrochloride], the inhibition at 0.01 µM in assay [1] (test concentration 10^−8 mol/l) was determined as 78%. The inhibition at 0.001 µM in assay [1] (test concentration 10^−9 mol/l) turned out to be 57%. For the same compound, the “2,3-epoxysqualene concentration” value in assay [2] (c=0.01 mg/kg, t=3 h) stood at 0.6 µg/g; in assay [2] (c=0.01 mg/kg, t=8 h), 3.0 µg/g; in assay [2] (c=0.1 mg/kg, t=3 h) it was 0.5 µg/g; in assay [2] (c=0.1 mg/kg, t=8 h) it was 1.3 µg/g; in assay [2] (c=0.3 mg/kg, t=3 h), 0.5 µg/g; in assay [2] (c=0.3 mg/kg, t=8 h) it was 1.8 µg/g. Also, the “2,3-epoxysqualene concentration” value in assay [2] (c=1.0 mg/kg, t=3 h) was 3.8 µg/g; in assay [2] (c=1.0 mg/kg, t=8 h), 2.0 µg/g.

As for `CN(C)Cc1ccc(SC2CCN(C(=O)Oc3ccc(Cl)cc3)CC2)cc1.Cl` [(D), N-(4-chlorophenoxy)carbonyl-4-[4-(dimethylaminomethyl)phenylthio]piperidine-hydrochloride], the inhibition at 0.01 µM in assay [1] (test concentration 10^−8 mol/l) stood at 86%. The inhibition at 0.001 µM in assay [1] (test concentration 10^−9 mol/l) was 55%. The “2,3-epoxysqualene concentration” value came out at 1.3 µg/g in assay [2] (c=0.01 mg/kg, t=3 h); 1.0 µg/g in assay [2] (c=0.01 mg/kg, t=8 h); 1.4 µg/g in assay [2] (c=0.1 mg/kg, t=3 h); 1.8 µg/g in assay [2] (c=0.1 mg/kg, t=8 h).

Take `CN(C)Cc1ccc(CC2CCN(C(=S)SCc3ccccc3)CC2)cc1.Cl` [(E), N-(benzylthio)thiocarbonyl-4-[4-(dimethylaminomethyl)benzyl]piperidine-hydrochloride]: in assay [1] (test concentration 10^−8 mol/l), the inhibition at 0.01 µM came to 87%. In addition, in assay [1] (test concentration 10^−9 mol/l), the inhibition at 0.001 µM was 47%. The “2,3-epoxysqualene concentration” value in assay [2] (c=0.01 mg/kg, t=3 h) amounted to 0.9 µg/g; in assay [2] (c=0.01 mg/kg, t=8 h) it was 1.0 µg/g; in assay [2] (c=0.1 mg/kg, t=3 h), 5.6 µg/g; in assay [2] (c=0.1 mg/kg, t=8 h), 4.4 µg/g.

Consider `CN(C)Cc1ccc(C=C2CCN(C(=S)SCc3ccccc3)CC2)cc1` [(F), N-(benzylthio)thiocarbonyl-4-[4-(dimethylaminomethyl)benzyliden]piperidine-hydrochloride], for which the inhibition at 0.01 µM in assay [1] (test concentration 10^−8 mol/l) was determined as 84%. Moreover, the inhibition at 0.001 µM in assay [1] (test concentration 10^−9 mol/l) was determined as 45%.

With `CN(C)Cc1ccc(CC2CCN(C(=S)Oc3ccc(Cl)cc3)CC2)cc1.Cl` [(G), N-(4-chlorophenoxy)thiocarbonyl-4-[4-(dimethylaminomethyl)benzyl]piperidine-hydrochloride], in assay [1] (test concentration 10^−8 mol/l), the inhibition at 0.01 µM was determined as 83%. Besides, the inhibition at 0.001 µM in assay [1] (test concentration 10^−9 mol/l) is 56%. The “2,3-epoxysqualene concentration” value in assay [2] (c=0.1 mg/kg, t=3 h) was found to be 10.3 µg/g; in assay [2] (c=0.1 mg/kg, t=8 h), 11.5 µg/g; in assay [2] (c=1.0 mg/kg, t=3 h), 87.4 µg/g; in assay [2] (c=1.0 mg/kg, t=8 h), 134.2 µg/g.

The IC50 is the midpoint of a concentration-inhibition curve. In assay [1], `CN(C)Cc1ccc(CC2CCN(C(=O)Oc3ccc(Cl)cc3)CC2)cc1.Cl` [(H), N-(4-chlorophenoxy)carbonyl-4-[4-(dimethylaminomethyl)benzyl]piperidine-hydrochloride] showed an IC50 of 0.8 nM. Further, in assay [1] (test concentration 10^−8 mol/l), the inhibition at 0.01 µM was found to be 80%. The inhibition at 0.001 µM in assay [1] (test concentration 10^−9 mol/l) came to 45%. Further, the HDL-cholesterol is recorded as −3.4% in assay [3] (dose 6.5 mg/kg/day), −8.2% in assay [3] (dose 19.9 mg/kg/day) and −28.5% in assay [3] (dose 62.3 mg/kg/day). The Total cholesterol is given as −8.3% in assay [3] (dose 6.5 mg/kg/day), −11.0% in assay [3] (dose 19.9 mg/kg/day) and −32.1% in assay [3] (dose 62.3 mg/kg/day). For the same compound, the β-Lipoprotein-cholesterol in assay [3] (dose 6.5 mg/kg/day) was −13.0%; in assay [3] (dose 19.9 mg/kg/day), −13.2%; in assay [3] (dose 62.3 mg/kg/day) it was −33.7%. Further, the “2,3-epoxysqualene concentration” value was determined as 1.0 µg/g in assay [2] (c=0.1 mg/kg, t=3 h); 0.8 µg/g in assay [2] (c=0.1 mg/kg, t=8 h); 56.3 µg/g in assay [2] (c=1.0 mg/kg, t=3 h); 20.7 µg/g in assay [2] (c=1.0 mg/kg, t=8 h).

Compound `CN(C)Cc1ccc(CC2CCN(C(=O)OCc3ccccc3)CC2)cc1.Cl` [(I), N-benzyloxycarbonyl-4-[4-(dimethylaminomethyl)benzyl]piperidine-hydrochloride] yielded an IC50 in assay [1] of 1.2 nM. Moreover, the inhibition at 0.01 µM in assay [1] (test concentration 10^−8 mol/l) stood at 85%. Further, the inhibition at 0.001 µM in assay [1] (test concentration 10^−9 mol/l) was found to be 47%. For the same compound, the “2,3-epoxysqualene concentration” value amounted to 1.0 µg/g in assay [2] (c=0.1 mg/kg, t=3 h); 26.1 µg/g in assay [2] (c=1.0 mg/kg, t=3 h); 10.0 µg/g in assay [2] (c=1.0 mg/kg, t=8 h).

Take `Cc1ccc(OC(=S)N2CCC(Cc3ccc(CN(C)C)cc3)CC2)cc1` [(L), 4-[4-(dimethylaminomethyl)benzyl]-N-(4-methylphenoxy)thiocarbonylpiperidine-hydrochloride]: the inhibition at 0.01 µM in assay [1] (test concentration 10^−8 mol/l) is 88%. Also, the inhibition at 0.001 µM in assay [1] (test concentration 10^−9 mol/l) was 64%.

Take `CN(C)Cc1ccc(CC2CCN(C(=O)Oc3ccc(F)cc3)CC2)cc1.Cl` [(M), 4-[4-(dimethylaminomethyl)benzyl]-N-(4-fluorphenoxy)carbonylpiperidine-hydrochloride]: in assay [1], it took 1.5 nM to reach half-maximal inhibition (IC50). The “percentage by which the compound inhibits the 14C-acetate incorporation” value in assay [1] (test concentration 10^−8 mol/l) is −84%. In addition, in assay [1] (test concentration 10^−9 mol/l), the “percentage by which the compound inhibits the 14C-acetate incorporation” value is listed as −59%. Moreover, in assay [3] (dose 57.5 mg/kg/day), the HDL-cholesterol is −20.4%, the Total cholesterol was −26.8% and the β-Lipoprotein-cholesterol was −31.6%.

`CN(C)Cc1ccc([C@H]2CC[C@H](N(C)C(=O)c3ccc(Cl)cc3)CC2)cc1` [(V), reference compound]: in assay [1], the IC50 was determined as 3.8 nM. The “percentage by which the compound inhibits the 14C-acetate incorporation” value in assay [1] (test concentration 10^−8 mol/l) is −59%; in assay [1] (test concentration 10^−9 mol/l), −23%.

Compound `Cc1ccc(CC(=O)O[C@H]2CC[C@H](c3ccc(CN(C)C)cc3)CC2)cc1` [(W), trans-O-(p-tolylacetyl)-4-(4-dimethylaminomethylphenyl)cyclohexanol, reference compound] showed an IC50 in assay [1] of 9.6 nM. The inhibition at 0.01 µM in assay [1] (test concentration 10^−8 mol/l) came out at 72%. Moreover, in assay [1] (test concentration 10^−9 mol/l), the inhibition at 0.001 µM turned out to be 21%.
